Marks after values point to notes of the source that are not given here.
Legend:
[1] = system: hypercholesterolemic rat model; assay: Hypocholesterolemic effects of R-P-P-R, K-P-P, L-arginine and Ezetimib in Fisher F344 rats (Example 6); assay type: in vivo; conditions: for Effect on non-HDL cholesterol (VLDL-cholesterol+LDL-cholesterol) as compared to the control group / Effect on plasma HDL-cholesterol as compared to the control group / Effect on plasma total cholesterol as compared to the control group: in words, 8 days orally, 100 mg/kg BW (Ezetimib 1 mg/kg BW); for HDL cholesterol (plasma) / Total cholesterol (plasma) / non HDL cholesterol (plasma): male F344 rats on atherogenic diet, orally for 8 days, peptides and L-arginine 100 mg/kg BW, Ezetimib 1 mg/kg BW, mean ± SD; for non HDL cholesterol (plasma): difference between total and HDL cholesterol
Protocol: In this experiment the effects of the chemically synthesized peptides R-P-P-R and K-P-P, the free amino acid L-arginine and the potent and selective cholesterol absorption inhibitor Ezetimib (Ezetrol, MSD Germany) were tested on plasma cholesterol levels in the hypercholesterolemic rat model.
Male Fisher rats (F344) from Charles River (Sulzfeld, Germany), weighing 65-96 g were housed individually with free access to water and feed, with an alternating 12-hour light-dark cycle. The animals were fed a rodent atherogenic diet high in cholesterol and fat similar to the procedure described in Example 5. After 2 weeks of adaptation to the diet the rats were randomized according to body weight into five experimental groups of 10 animals each. The five groups were treated orally every morning for 8 days with either water (control group) or with R-P-P-R, K-P-P and L-arginine at a dose of 100 mg/kg body weight (BW) or with Ezetimib at a dose of 1 mg/kg BW while continuing the aetherogenic diet. There was no difference in feed consumption over the whole experiment. The day before the last administration, all animals were dosed orally in the evening and deprived of food for the last 6 hours but allowed free access to water. At day 8 the fasted rats were treated again orally in the morning and after two hours the animals were sacrificed by withdrawing blood from the vena Cava under Isoflurane anesthesia. Blood was collected into tubes containing EDTA as an anticoagulant. Plasma was prepared from the blood by immediate centrifugation at 1600 g for 10 minutes at 4° C. Assays of plasma cholesterol and HDL-cholesterol (precipitation method) were determined enzymatically on a Hitachi 912 automatic analyzer (Roche Diagnostica, Switzerland). Non-HDL cholesterol was calculated by difference between total cholesterol and HDL cholesterol. All data are expressed as means±standard deviation (SD) for animals in each diet group, with n being the number of rats.

[2] = system: hypercholesterolemic rat model; assay: Hypocholesterolemic effects of peptide R-P-P-R-S in Fisher F344 rats (Example 5); assay type: in vivo; conditions: male F344 rats on atherogenic diet, 100 mg/kg BW orally for 7 days, mean ± SD
Protocol: In this experiment the effects of the chemically synthesized […] R-P-P-R-S was tested on plasma cholesterol levels in the hypercholesterolemic rat model.
In short male Fisher rats (F344) from Charles River (Sulzfeld, Germany), weighing 65-96 g were housed individually with free access to water and feed, with an alternating 12-hour light-dark cycle. The animals were fed a rodent atherogenic diet high in cholesterol and fat for the 2 weeks preceding the treatment. The macro-nutrient composition of the diet was as follows (g/100 g anhydrous mix): protein 20.8; fiber 4.2; fat 15; carbohydrate 48. The diet also contained 1.25 wt % cholesterol, 0.5 wt % sodium cholate and a standard vitamin and mineral mix, prepared according to rat nutritional requirements. The main fats consisted of cacoa butter (7.5 wt %) and soja oil (4.35 wt %). After 2 weeks of adaptation to the diet the rats were randomized according to body weight into two experimental groups of 10 animals. The two groups were treated orally every morning for 7 days with either water (control group) or peptide R-P-P-R-S, at a dose of 100 mg/kg body weight (BW) while continuing the aetherogenic diet. There was no difference in feed consumption over the whole experiment. The day before the last administration, all animals were dosed orally in the evening and deprived of food overnight (14 hours) but allowed free access to water. At day 7 the fasted rats were treated again orally in the morning and after two hours the animals were sacrificed by withdrawing blood from the vena Cava under Isoflurane anesthesia. Blood was collected into tubes containing EDTA as an anticoagulant. […] Assays of plasma cholesterol and HDL-cholesterol (precipitation method) were determined enzymatically on a Hitachi 912 automatic analyzer (Roche Diagnostica, Switzerland). Non-HDL cholesterol was calculated by difference between total cholesterol and HDL cholesterol. […] All data are expressed as means±standard deviation (SD) for animals in each diet group, with n being the number of rats. […]

Row | Compound | Effect on non-HDL cholesterol (VLDL-cholesterol+LDL-cholesterol) as compared to the control group [1] | Effect on plasma HDL-cholesterol as compared to the control group [1] | Effect on plasma total cholesterol as compared to the control group [1] | HDL cholesterol (plasma) [1] [mmol/L] | Total cholesterol (plasma) [1] [mmol/L] | non HDL cholesterol (plasma) [1] [mmol/L] | HDL cholesterol (plasma) ([2]; fasted, 2 h after last dose) | Total cholesterol (plasma) ([2]; fasted, 2 h after last dose) | non HDL cholesterol (plasma) ([2]; difference between total and HDL cholesterol)
1 | O=C1[C@H](CC[C@H](O)c2ccc(F)cc2)[C@@H](c2ccc(O)cc2)N1c1ccc(F)cc1 [Ezetimib, reference compound] | prominent effects | prominent effects | prominent effects | 0.51 ± 0.06 | 4.70 ± 0.93 | 4.19 ± 0.90 | – | – | –
2 | R-P-P-R (RPPR) [chemically synthesized peptide Arg-Pro-Pro-Arg] | significantly lowered | tended to increase | significantly lowered | 0.35 ± 0.04 | 5.28 ± 0.81 | 4.94 ± 0.81 | – | – | –
3 | N=C(N)NCCC[C@H](N)C(=O)O [L-arginine, reference compound] | had no effect | had no effect | had no effect | 0.33 ± 0.05 | 7.66 ± 1.08 | 7.32 ± 1.08 | – | – | –
4 | R-P-P-R-S (RPPRS) [chemically synthesized peptide Arg-Pro-Pro-Arg-Ser] | – | – | – | – | – | – | 0.36 ± 0.10^b mmol/L | 2.9 ± 0.4^b mmol/L | 2.5 ± 0.5^b mmol/L
5 | K-P-P [KPP] | tended to lowered | significantly increased | tended to lowered | 0.37 ± 0.04 | 6.82 ± 1.42 | 6.45 ± 1.44 | – | – | –
